From patent EP2442784B1, “COMPOSITIONS AND METHODS FOR INHIBITING PAR2 ACTIVATION OF KERATINOCYTES” (THE PROCTER & GAMBLE COMPANY, priority 2010, dated 2012) come the findings set out here.

For the assay, the target named is T1, PAR-2 receptor (Homo sapiens, UniProt P55085).
T1 construct: host or cells: engineered cell line from DiscoveRx
T1 sequence (P55085 26-397): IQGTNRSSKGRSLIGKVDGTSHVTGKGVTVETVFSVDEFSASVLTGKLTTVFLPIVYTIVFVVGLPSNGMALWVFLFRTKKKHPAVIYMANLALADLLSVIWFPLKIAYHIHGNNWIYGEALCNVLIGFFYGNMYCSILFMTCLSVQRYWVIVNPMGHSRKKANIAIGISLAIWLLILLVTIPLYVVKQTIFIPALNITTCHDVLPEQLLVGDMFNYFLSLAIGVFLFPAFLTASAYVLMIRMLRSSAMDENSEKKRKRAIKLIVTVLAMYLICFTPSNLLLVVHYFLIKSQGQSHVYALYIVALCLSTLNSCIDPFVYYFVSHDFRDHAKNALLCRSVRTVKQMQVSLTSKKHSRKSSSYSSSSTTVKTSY
Nature of the assay: PAR-2 Inhibition Assay (beta arrestin recruitment / beta galactosidase complementation, luminescence; PAR2 activation by trypsin). Format: cell-based. The settings on record: for PAR2 inhibitory effect (summary in words): over the dilution factors tested; for percent inhibition of PAR2 activation: activation by trypsin, triplicate. The text has this: PAR-2 Inhibition Assay - The assay principle relies on the recruitment of beta arrestin to the activated PAR-2 receptor resulting in the formation of an active beta galactosidase enzyme which can cleave a substrate causing a luminescent signal that can be quantitated. PAR-2 can be activated by either adding trypsin and also by adding SLIGRL peptide.
Cells expressing PAR-2 receptor coupled to the alpha fragment of beta galactosidase and expressing beta arrestin coupled to the beta fragment of beta galactosidase are obtained from DiscoveRx Corp., Freemont, CA. Cells are propagated in a culture medium of Dulbeccos Modified Eagle Medium supplemented with 10% heat-inactivated fetal bovine serum, 500 unit/mL penicillin, 500 ug/mL streptomycin, 800 ug/mL gentimicin, and 300 ug/mL hygromycin in T75 or T150 culture flasks (all media components available from Invitrogen Corp., Carlsbad, CA) in a CO2 incubator at 37°C. When cells reach approximately 80% confluency, the cells are detached from the flask using Cell Dissociation Buffer (available from Invitrogen Corp., Carlsbad, CA as item number 13151-014). The cells are counted using a hemocytometer and plated into 384 well plates at 10000 cells/well in 20 uL/well of Opti-MEM® media (available from Invitrogen Corp., Carlsbad, CA). The cells are cultured for 24 -48 hours.
To assay potential inhibitors of PAR2 activation by trypsin, each well is treated with 1 uL of the test material in water. Each test material is run in triplicate. The cells are incubated for 30 minutes in the CO2 incubator, after which 1 uL of trypsin is added (approximate 0.1 ug/uL). The cells are incubated for an hour in the CO2 incubator after which the cell lysis substrate solution (11 uL/well) is added. The lysis substrate solution is available in the PathHunter™ Detection Kit (catalogue #93-0001) from DiscoveRx Corp., Freemont, CA, in which the components are mixed in the following ratio: • Assay Buffer: Substrate 1: Substrate 2 = 19:5:1 The plates are briefly centrifuged (approximately 5 minutes) at 800 X g to remove bubbles and are then incubated at room temperature for 1 hr. Luminescence is read for each well on an Envision™ 2101 Multilabel Reader (available form PerkinElmer, Inc., Boston, MA). The range is determined by wells with solvent control + trypsin (high control) and by wells with solvent control and no trypsin (low control). The percent PAR2 inhibition of each treatment is calculated by the following formula of the luminescence signals: (1-([treatment luminescence-low control luminescence])/([high control luminescence-low control luminescence])) × 100 [formula] Statistics are done in Excel by Microsoft, Redmond, WA, using the T-test function, single tail with uneven distribution functions.
Using the assay outlined above, various concentrations and combinations of Laminaria Saccharina extract (e.g., Phlorogine), N-acyl Amino Acid (e.g., Sepiwhite), and vitamin B3 (e.g., niacinamide) were tested. Stock compositions of 1% Phlorogine (i.e., composition comprises approximately 0.025% - 0.01% Laminaria Saccharina extract), 1% Sepiwhite, 5% niacinamide, and combinations thereof are prepared and diluted prior to use. Test runs are performed at dilution factors of 0.045, 0.023, and 0.006. For clarity purposes, the 1% Sepiwhite composition diluted at a factor of 0.045 yields a test compositing comprising 0.045% Sepiwhite.
On the technique in general: Recruitment of arrestin is a read-out of receptor activation apart from second messengers.

Setting [1] is: stock composition diluted at dilution factor 0.006.
Where [2] appears, read: stock composition diluted at dilution factor 0.023.
The mark [3] stands for this setting: stock composition diluted at dilution factor 0.045 (e.g. 0.045% Sepiwhite), 100% = control without trypsin.

SMILES strings stand for the structures.

Turning to `C=CCCCCCCCCC(=O)N[C@@H](Cc1ccccc1)C(=O)O` [1% Sepiwhite, N-undecylenoyl-L-phenylalanine], the “PAR2 inhibitory effect (summary in words)” value is listed as “inhibitory effect which is pronounced at higher dilutions”. Moreover, under setting [1], the “percent inhibition of PAR2 activation” value turned out to be 14%. Moreover, the “percent inhibition of PAR2 activation” value under setting [2] is 35%. Further, the “percent inhibition of PAR2 activation” value under setting [3] is listed as 53%.

Turning to `NC(=O)c1cccnc1` [5% Niacinamide, niacinamide], the “PAR2 inhibitory effect (summary in words)” value is “inhibitory effect which is pronounced at higher dilutions”. Moreover, under setting [1], the “percent inhibition of PAR2 activation” value was 5%. For the same compound, under setting [2], the “percent inhibition of PAR2 activation” value worked out at 14%. Besides, the “percent inhibition of PAR2 activation” value under setting [3] stood at 20%.
